assay: Measurement of Log P values by HPLC on reversed phase columns (EEC directive 79/831 Annex V.A8), methods [a], [b], [c]; type: physicochemical; settings: HPLC method [a]
Method: Measurement of Log P values as provided herein was performed according to EEC directive 79/831 Annex V.A8 by HPLC (High Performance Liquid Chromatography) on reversed phase columns with the following methods: • ^[a]

Structure (SMILES) | LogP
C=C(C)c1cc(C(=O)NCC(F)(F)c2ccc(C)cc2C)c(Oc2cccc(C(F)(F)F)c2)nn1 [I-222] | 4.87^[a]
COc1ccc(CCNC(=O)c2cc(Cl)nnc2Oc2cccc(C(F)(F)F)c2)cc1OC [I-268] | 3.26^[a]
O=C(NCC(F)(F)c1ccc(Cl)cc1)c1c(Oc2cccc(C(F)(F)F)c2)nnc(Cl)c1NC1CCCCC1 [I-272] | 4.98^[a]
O=C(NCc1cnc2ccccc2c1)c1cc(Cl)nnc1Oc1cccc(C(F)(F)F)c1 [I-306] | 2.71^[a]

same assay, conditions: HPLC method [b]

Structure (SMILES) | LogP
Cc1cc(C(=O)NCCc2ccc(C(F)F)cn2)c(Oc2cccc(C3CC3)c2)nn1 [I-282] | 2.82^[b]

same assay, conditions: HPLC on reversed phase column, method [a]

Structure (SMILES) | LogP
COc1ccc(C(F)(F)CNC(=O)c2cc(Cl)nnc2Oc2cccc(C(F)(F)F)c2)c(Cl)c1 [I-007] | 4.00^[a]
Cc1cc(C(=O)NCC(F)(F)c2ccc(C3CCCCC3)cc2Cl)c(Oc2cccc(C(F)(F)F)c2)nn1 [I-018] | 5.44^[a]
Cc1cc(C(=O)NCC(F)(F)c2ccc(C3CCC3)cc2Cl)c(Oc2cccc(C(F)(F)F)c2)nn1 [I-028] | 4.83^[a]
COc1ccc(CCNC(=O)c2cc(Cl)nnc2Oc2cccc(C(F)(F)F)c2)cc1 [I-036] | 3.61^[a]
O=C(NCCc1ncccc1C(F)(F)F)c1cc(Cl)nnc1Oc1cccc(C(F)(F)F)c1 [I-037] | 3.65^[a]
Cc1ccc(C(F)(F)CNC(=O)c2c(Oc3cccc(C(F)(F)F)c3)nnc(Cl)c2NCC(C)(C)O[Si](C)(C)C)c(C)c1 [I-064] | 6.32^[a]
O=C(NCC(F)(F)c1ccc(F)cc1F)c1cc(Cl)nnc1Oc1cccc(C(F)(F)F)c1 [I-067] | 3.75^[a]
O=C(NCCc1ccc(C(F)(F)F)cn1)c1cc(Cl)nnc1Oc1cccc(C(F)(F)F)c1 [I-068] | 3.53^[a]
Cc1ccc(C(F)(F)CNC(=O)c2c(Oc3cccc(C(F)(F)F)c3)nnc(Cl)c2[S+](C)[O-])c(C)c1 (stereo not drawn) [I-072] | 3.75^[a]
CC(CNC(=O)c1cc(Cl)nnc1Oc1cccc(C(F)(F)F)c1)c1ccc(Cl)cc1Cl (stereo not drawn) [I-075] | 4.68^[a]
CC(=O)N(C)Cc1c(Cl)nnc(Oc2cccc(C(F)(F)F)c2)c1C(=O)NCCc1ccc(C)cc1C [I-077] | 3.65^[a]
O=C(NCC(F)(F)c1ccc(SCC(F)(F)F)cc1Cl)c1cc(Cl)nnc1Oc1cccc(C(F)(F)F)c1 [I-087] | 4.45^[a]
O=C(NCC(F)(F)c1ccc(Cl)cn1)c1cc(Cl)nnc1Oc1cccc(C(F)(F)F)c1 [I-108] | 3.65^[a]
O=C(NCC(F)(F)c1ccc(Cl)cn1)c1cc(Cl)nnc1Oc1cccc(C(F)F)c1 [I-158] | 3.32^[a]
Cc1ccc(C(F)(F)CNC(=O)c2cc(Cl)nnc2Oc2cncc(Br)c2)c(C)c1 [I-173] | 3.78^[a]
CCOc1c(Cl)nnc(Oc2cccc(C(F)(F)F)c2)c1C(=O)NCC(F)(F)c1ccc(C)cc1C [I-181] | 4.68^[a]
Cc1cnnc(Oc2cccc(C(F)(F)F)c2)c1C(=O)NCC(F)(F)c1ccc(Cl)cc1Cl [I-183] | 3.78^[a]
Cc1c(Cl)nnc(Oc2cccc(C3CC3)c2F)c1C(=O)NCCc1ccc(Cl)cc1Cl [I-215] | 4.58^[a]

same assay, conditions: method [a]: LC-UV, acidic range, 0.1% formic acid in water and acetonitrile as eluent (10% to 95% acetonitrile); Table 3, compounds of formula (1)

Structure (SMILES) | LogP
CNc1c(Cl)nnc(Oc2cccc(C3CC3)c2F)c1C(=O)O [Compound 1-116] | 1.97^[a]
Cc1c(Cl)nnc(Oc2cccc(C(F)F)c2F)c1C(=O)O [Compound 1-117] | 1.49^[a]
Cc1c(Cl)nnc(Oc2cccc(Cl)c2F)c1C(=O)O [Compound 1-122] | 1.68^[a]
Cc1cc(C(=O)O)c(Oc2cccc(C(F)(F)F)c2)nn1 [Compound 1-125] | 1.92^[a]
O=C(O)c1cc(I)nnc1Oc1cccc(C(F)(F)F)c1 [Compound 1-127] | 2.08^[a]

same assay, conditions: method [a]: LC-UV, acidic range, 0.1% formic acid in water and acetonitrile as eluent; Table 5, compounds of formula (2)

Structure (SMILES) | LogP
C#Cc1ccc(C(F)(F)CN)c(C)c1 [Compound 2-01] | 0.93^[a]
Cc1cc(C)c(C(F)(F)CN)c(F)c1 [Compound 2-03] | 0.95^[a]
NCC(F)(F)c1cccc(Br)c1Cl [Compound 2-04] | 0.87^[a]

same assay, conditions: method [a]: LC-UV, acidic range, 0.1% formic acid in water and acetonitrile as eluent; Table 9, compounds of formula (4)

Structure (SMILES) | LogP
CC=Cc1cccc(O)c1F [Compound 4-01] | 2.33^[a]

same assay, conditions: reversed-phase HPLC column, HPLC method [a]

Structure (SMILES) | chromatographic logP
Cc1cc(C2CC2)ccc1C(F)(F)CNC(=O)c1cc(Cl)nnc1Oc1cccc(C(F)(F)F)c1 [Compound I-240, 6-chloro-N-[2-(4-cyclopropyl-2-methyl-phenyl)-2,2-difluoro-ethyl]-3-[3-(tri-fluoromethyl)phenoxy]pyridazine-4-carboxamide] | 4.77
CCc1c(Cl)nnc(Oc2cccc(C(F)(F)F)c2)c1C(=O)NCC(F)(F)c1ccc(Cl)cc1 [Compound I-254, 6-chloro-N-[2-(4-chlorophenyl)-2,2-difluoro-ethyl]-5-ethyl-3-[3-(trifluoromethyl)phenoxy]pyridazine-4-carboxamide] | 4.51
COC(=O)N(CC(F)(F)c1ccc(C)cc1C)C(=O)c1cc(Cl)nnc1Oc1cccc(C(F)(F)F)c1 [Compound I-335, methyl N-[6-chloro-3-[3-(trifluoromethyl)phenoxy]pyridazine-4-carbonyl]-N-[2-(2,4-dimethylphenyl)-2,2-difluoro-ethyl]carbamate] | 5.19
Cc1ccc(C(F)(F)CNC(=O)c2c(Oc3cccc(C(F)(F)F)c3)nnc(Cl)c2NC2COC2)c(C)c1 [Compound I-408, 6-chloro-N-[2-(2,4-dimethylphenyl)-2,2-difluoro-ethyl]-5-(oxetan-3-ylamino)-3-[3-(trifluoromethyl)phenoxy]pyridazine-4-carboxamide] | 3.85

same assay, conditions: reversed-phase HPLC column, HPLC method [b]

Structure (SMILES) | chromatographic logP
Cc1ccc(C(F)(F)CNC(=O)c2c(Oc3cccc(C(F)(F)F)c3)nnc(Cl)c2NC2COC2)c(C)c1 [Compound I-408, 6-chloro-N-[2-(2,4-dimethylphenyl)-2,2-difluoro-ethyl]-5-(oxetan-3-ylamino)-3-[3-(trifluoromethyl)phenoxy]pyridazine-4-carboxamide] | 3.94

same assay, conditions: reversed-phase HPLC column, HPLC on reversed phase column, method [a]

Structure (SMILES) | chromatographic logP
Cc1ccc(C(F)(F)CNC(=O)c2cc(Cl)nnc2Oc2cccc(C(F)(F)F)c2)c(C)c1 [Compound I-014, 6-chloro-N-[2-(2,4-dimethylphenyl)-2,2-difluoro-ethyl]-3-[3-(trifluoromethyl)phenoxy]pyridazine-4-carboxamide] | 4.46
Cc1ccc(C(F)(F)CNC(=O)c2c(Oc3cccc(C(F)(F)F)c3)nnc(Cl)c2I)c(C)c1 [Compound I-020, 6-chloro-N-[2-(2,4-dimethylphenyl)-2,2-difluoro-ethyl]-5-iodo-3-[3-(trifluoromethyl)phenoxy]pyridazine-4-carboxamide] | 4.61
COCCc1c(Cl)nnc(Oc2cccc(C(F)(F)F)c2)c1C(=O)NCC(F)(F)c1ccc(Br)cc1Cl [Compound I-070, N-[2-(4-bromo-2-chloro-phenyl)-2,2-difluoro-ethyl]-6-chloro-5-(2-methoxyethyl)-3-[3-(trifluoromethyl)phenoxy]pyridazine-4-carboxamide] | 4.77
Cc1ccc(CCNC(=S)c2cc(C)nnc2Oc2cccc(C(F)(F)F)c2)c(C)c1 [Compound I-094, N-[2-(2,4-dimethylphenyl)ethyl]-6-methyl-3-[3-(trifluoro-methyl)phenoxy]pyridazine-4-carbothioamide] | 4.69
Cc1ccc(C(F)(F)CNC(=O)c2c(Oc3cccc(C4CC4)c3F)nnc(Cl)c2C)c(Br)c1 [Compound I-840, N-[2-(2-bromo-4-methylphenyl)-2,2-difluoroethyl]-6-chloro-3-(3-cyclopropyl-2-fluoro-phenoxy)-5-methylpyridazine-4-carboxamide] | 4.57

same assay, conditions: reversed-phase HPLC column, method [a]

Structure (SMILES) | chromatographic logP
O=C(NCC(F)(F)c1ccc(Br)cc1Cl)c1cc(Cl)nnc1Cl [Compound 3-10, N-[2-(4-bromo-2-chloro-phenyl)-2,2-difluoro-ethyl]-3,6-dichloro-pyridazine-4-carboxamide] | 3.29
Cc1ccc(C(F)(F)CNC(=O)c2cc(I)nnc2Oc2cccc(C(F)(F)F)c2)c(C)c1 [Compound I-461, N-[2-(2,4-dimethylphenyl)-2,2-difluoro-ethyl]-6-iodo-3-[3-(trifluoromethyl)phenoxy]pyridazine-4-carboxamide] | 4.67
O=C(NCC(F)(F)c1ccc(Br)cc1Cl)c1cc(Cl)nnc1Oc1cccc(F)c1F [Compound I-530, N-[2-(4-bromo-2-chloro-phenyl)-2,2-difluoro-ethyl]-6-chloro-3-(2,3-difluorophenoxy)pyridazine-4-carboxamide] | 4.27
Cc1ccc(C(F)(F)CNC(=O)c2c(Oc3cccc(C(F)(F)F)c3)nnc(Cl)c2-c2cccnc2)c(C)c1 [Compound I-550, 6-chloro-N-[2-(2,4-dimethylphenyl)-2,2-difluoro-ethyl]-5-(3-pyridyl)-3-[3-(trifluoromethyl)phenoxy]pyridazine-4-carboxamide] | 3.99
Cc1ccc(C(F)(F)CNC(=O)c2cc(C)nnc2Oc2cccc(C3CCC3)c2)c(C)c1 [Compound I-564, 3-(3-cyclobutylphenoxy)-N-[2-(2,4-dimethylphenyl)-2,2-difluoro-ethyl]-6-methyl-pyridazine-4-carboxamide] | 3.85
CSc1cc(C(=O)NCC(F)(F)c2ccc(C)cc2C)c(Oc2cccc(C(F)(F)F)c2)nn1 [Compound I-767, N-[2-(2,4-dimethylphenyl)-2,2-difluoro-ethyl]-6-methylsulfanyl-3-[3-(trifluoromethyl)phenoxy]pyridazine-4-carboxamide] | 4.72
Cc1ccc(C(F)(F)CNC(=O)c2c(Oc3cccc(Cl)c3)nnc(Cl)c2C)c(C)c1 [Compound I-790, 6-chloro-3-(3-chlorophenoxy)-N-[2-(2,4-dimethylphenyl)-2,2-difluoro-ethyl]-5-methyl-pyridazine-4-carboxamide] | 4.27

same assay, conditions: reversed-phase HPLC column, method [a]: LC-UV, acidic range, 0.1% formic acid in water and acetonitrile as eluent (10% to 95% acetonitrile); Table 3, compounds of formula (1)

Structure (SMILES) | chromatographic logP
CCOC(=O)c1cc(Cl)nnc1Oc1cccc(Cl)c1F [Compound 1-119] | 3.6
CCOC(=O)c1c(Oc2cccc(Cl)c2F)nnc(Cl)c1C [Compound 1-121] | 3.88
COC(=O)c1cc(Cl)nnc1Oc1cccc(C(F)F)c1 [Compound 1-124] | 2.76
CCOC(=O)c1cc(Cl)nnc1Oc1cccc(Br)c1 [Compound 1-130] | 3.65

same assay, conditions: reversed-phase HPLC column, method [b]

Structure (SMILES) | chromatographic logP
O=C(NCC(F)(F)c1ccc(Br)cc1Cl)c1cc(Cl)nnc1Cl [Compound 3-10, N-[2-(4-bromo-2-chloro-phenyl)-2,2-difluoro-ethyl]-3,6-dichloro-pyridazine-4-carboxamide] | 3.24

Source: patent publication US20230165252A1, “ACTIVE COMPOUND COMBINATIONS” (Bayer Aktiengesellschaft, priority 2020, published 2023)
